Measured values: PMC10507807, “De novo design of a stapled peptide targeting SARS-CoV-2 spike protein receptor-binding domain” (RSC Medicinal Chemistry, 2023)
Starred links: 1 amine or outer side, 2 acyl side, 3 side chain; linkers in the order of their positions; H or OH if unused. Positions of bridges follow the written chain, without caps; N, C: chain ends. Non-standard residues stand in square brackets, D forms with d. Residues, ends and D or L forms follow the SMILES beside them. X1 = C[C@@](CC=[*:3])(N[*:1])C(=O)[*:2]

How the values were obtained:
[1] = test system: SARS-CoV-2 spike protein RBD; assay type: binding
[2] = test system: Vero E6 cells; conditions: MTT, 0.05–50 μM pep39, 48 h

CSCC[C@@H]1NC(=O)[C@H](CC(N)=O)NC(=O)[C@@H]2CC(=O)NCCCC[C@H](NC(=O)[C@H](Cc3c[nH]c4ccccc34)NC(=O)[C@@H](NC(=O)[C@H](CCCCN)NC(=O)[C@H](Cc3ccc(O)cc3)NC(=O)[C@H](CC(C)C)NC(=O)[C@H](Cc3c[nH]c4ccccc34)NC(=O)[C@H](CCC(=O)O)NC(=O)[C@@H](NC(=O)CNC(C)=O)[C@@H](C)O)C(C)C)C(=O)N[C@@H](C)C(=O)N[C@@H](Cc3ccccc3)C(=O)N[C@@](C)(C/C=C/C[C@@](C)(C(=O)O)NC1=O)C(=O)N2 [pep39] (Ac-GTEWLYKVWKAF[X1]DNM[X1]-OH; lactam 10-14; staple (E) 13-17)
confirmation of binding to spike protein RBD [1]: able to confirm the binding of pep39 on the surface of the spike protein RBD | maximum micro-cantilever deflection ([1]; pH 7.4): 33.27 nm | minimum micro-cantilever deflection ([1]; pH 7.4): 8.46 nm | concentration at which significant inhibition of cell growth was observed ([2]; P < 0.05 vs PBS): ≥ 50 µM | concentration above which cell growth is dose dependently inhibited ([2]; vs PBS): higher than 0.5 μM
